Test results as given in PubChem BioAssay (NCI).
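Test compounds were applied to cells in 96-well plates for 48 hours at 5 doses. At the GI50, growth is halved. The concentration for full growth arrest is given as TGI.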

Tests used:
Assay in all cases: NCI tumour cell line growth inhibition, 48 h
[1] = tested on: OVCAR-8 ovarian
[2] = tested on: BT-549 breast
[3] = tested on: DU-145 prostate
[4] = tested on: SN12C renal
[5] = tested on: NCI-H226 lung
[6] = tested on: HOP-62 NSCLC
[7] = tested on: SF-539 CNS
[8] = tested on: SK-MEL-5 melanoma
[9] = tested on: MCF7 breast
[10] = tested on: HT29 colon

| SMILES | GI50 [1] [µM] | TGI [1] [µM] | GI50 [2] [µM] | TGI [2] [µM] | GI50 [3] [µM] | TGI [3] [µM] | GI50 [4] [µM] | TGI [4] [µM] | GI50 [5] [µM] | TGI [5] [µM] | GI50 [6] [µM] | TGI [6] [µM] | GI50 [7] [µM] | TGI [7] [µM] | GI50 [8] [µM] | TGI [8] [µM] | GI50 [9] [µM] | TGI [9] [µM] | GI50 [10] [µM] | TGI [10] [µM] |
| --- | --- | --- | --- | --- | --- | --- | --- | --- | --- | --- | --- | --- | --- | --- | --- | --- | --- | --- | --- | --- |
| C=CC(=O)N1CCN(c2ncnc3c(F)c(-c4c(O)cccc4F)c(Cl)cc23)CC1 | 19.3 | 67 | 3.87 | 17.3 | 10.6 | 23.6 | 13.9 | 31.3 | 17 | 46.2 | 0.211 | 20.7 | 7.48 | 20.5 | 13.6 | 26.5 | 9.68 | 29.3 | 25 | 77.7 |
| CCCCCCNc1nc(NCCCCCC)c2[nH]c(NCCCCCC)nc2n1 | 9.96 | 30.8 | 7.47 | 25.1 | 12.8 | 25.4 | 3.75 | 17.6 | 15.4 | 34.3 | 18.5 | 33 | 7.39 | 21.1 | 12.7 | 25.2 | 3.22 | 15.8 | 5.59 | 18.8 |
| Cc1ccc([N+](=O)[O-])c2c(NCCCN(C)C)ccnc12 | – | > 100 | – | > 100 | – | > 100 | – | > 100 | – | > 100 | – | > 100 | – | > 77 | – | 72.8 | – | > 100 | – | > 90.7 |
| COc1ccc(C2C(C#N)=C(N)OC3=C2CCCc2ccc(F)cc23)cc1OC (stereo unspecified) | 21.4 | 53.5 | 19.4 | 42.5 | 19.1 | 36.9 | 19.7 | 39.5 | 19.6 | 43.9 | 21.5 | 42.3 | 16.6 | 32.2 | 14.7 | 27.9 | 28.1 | > 77.7 | 29.6 | > 72.4 |
| CCCNCc1cc(C)cc2c1nc(N1CCNCC1)n2Cc1cc(C)c(F)c(C)c1 | 3.9 | 13.8 | 12.3 | 26.1 | 6.15 | 19.6 | 7.57 | 21.6 | 19.1 | 38.2 | 17 | 32.2 | 1.79 | 3.59 | 1.75 | 3.21 | 2.25 | 6.05 | 2.09 | 5.29 |
| O=P(O)(O)C(O)(Cn1ccnc1)P(=O)(O)O | > 92.3 | > 100 | > 34.4 | > 100 | > 72.2 | > 100 | > 57.7 | > 100 | > 75 | > 100 | > 55 | > 100 | 20.3 | > 100 | > 43 | > 78 | > 86.4 | > 100 | > 90.6 | > 100 |
| CC(=O)n1c(-c2ccc(Cl)cc2)nc2c(c1=O)C(c1ccc(Cl)cc1)c1sc3c(Cl)cccc3c1O2 (stereo unspecified) | 0.626 | 3.02 | 0.373 | 1.89 | 0.499 | 2.38 | 0.715 | 2.56 | 0.323 | 1.78 | 0.374 | 1.76 | 0.296 | 1.12 | 0.354 | 1.32 | 0.282 | 1.47 | 0.368 | 1.33 |
| O=C1c2ccccc2-c2c1c1ccccc1c(=O)n2CCNCCCNCCn1c2c(c3ccccc3c1=O)C(=O)c1ccccc1-2 | 0.0101 | 0.361 | 0.629 | 1.9 | 0.0736 | 0.739 | 0.011 | 0.436 | 0.64 | 1.66 | 0.0723 | 1.16 | 0.0848 | 1.36 | 1.75 | 7.9 | 0.0885 | – | 0.051 | – |
| C=CCOc1c(Br)cc(Br)cc1Br | 28.2 | > 100 | 35.5 | > 100 | 58.5 | > 100 | 30 | > 100 | 24.8 | > 100 | 23.5 | > 100 | 20.9 | > 100 | 43.4 | > 100 | 9.32 | > 100 | 33 | > 100 |
| CCN(Cc1c(F)cccc1F)c1ccc(CO)c(Cl)c1 | 4.15 | 35.8 | 16.5 | 41.4 | 12.3 | 47 | 15.4 | 58.5 | 0.0318 | 0.126 | 0.327 | 34.7 | 20.5 | > 59.2 | 13.5 | 26.7 | 0.0488 | 18.4 | 0.747 | 19.5 |
| CC(=O)[CH-]C(C)=O.CC(=O)[CH-]C(C)=O.N=CC=N.[Sn+2] | 2.11 | 4.74 | 2.76 | 8.25 | 2.77 | 11.2 | 2.9 | 9.14 | 9.9 | 23 | 19.3 | 33.9 | 3.23 | 11.8 | 5.46 | 16.9 | 2.63 | 12 | 3.41 | 10.8 |
| COc1ccc2c(-c3cc4ccccc4o3)cc(=O)oc2c1 | – | > 100 | – | > 100 | – | > 100 | – | > 100 | – | > 100 | – | 46.7 | – | 49.6 | – | > 100 | – | > 100 | – | > 100 |
| CCN(CCO)CCNc1ccc(C)c2sc3cc(Cl)ccc3c(=O)c12 | 1.78 | 3.38 | 3.78 | 14 | 1.57 | 2.94 | 1.47 | 3.11 | 1.39 | 3.12 | 1.5 | 2.95 | 1.73 | 3.43 | 1.54 | 2.88 | 1.21 | 2.78 | 1.28 | 2.62 |
| COc1ccc(NC2=C(Br)C(=O)C(C)=C(C)C2=O)cc1 | 2.22 | 5.31 | 11.8 | 24.4 | 15 | 29.1 | 11 | 23.2 | 13 | 27.6 | 15 | 38.6 | 13.5 | 26.7 | 13.1 | 26 | 1.78 | 3.77 | 27.4 | 79.6 |
| Oc1ccc(Cc2ccccc2)c2cccnc12 | 2.35 | > 100 | 2.33 | 26.7 | 2.58 | > 100 | 2.61 | > 100 | 13.8 | 67.5 | 2.03 | 80.6 | 1.66 | 19.2 | 1.52 | 10.8 | 7.46 | > 100 | 22.5 | > 100 |
| CCn1c(-c2nonc2N)nc2ccc(F)cc21 | > 25 | > 25 | > 25 | > 25 | > 25 | > 25 | > 25 | > 25 | > 25 | > 25 | > 25 | > 25 | > 25 | > 25 | > 25 | > 25 | > 25 | > 25 | > 25 | > 25 |
| CCCSc1cc(Cl)nc(N)n1 | > 100 | > 100 | 65.1 | > 100 | > 100 | > 100 | > 100 | > 100 | > 100 | > 100 | > 100 | > 100 | > 100 | > 100 | > 100 | > 100 | > 100 | > 100 | > 100 | > 100 |
| COC(=O)C(Cc1ccccc1)N/C=C\C(=O)c1ccc(Cl)cc1 (stereo unspecified) | 35.3 | 88.9 | 28.1 | > 100 | 31.5 | > 100 | 16.7 | 40.5 | 26 | 77.3 | 25.1 | 67.6 | 18.6 | 45.1 | 19.3 | 33.5 | 26.2 | 66.4 | 35.1 | > 100 |
| COc1ccc2c(c1)[C@@]13CCN4CC5=CCO[C@H]6CC(=O)N2[C@H]1[C@H]6[C@H]5C[C@H]43 | – | > 100 | – | > 100 | – | > 100 | – | > 100 | – | 30.9 | – | > 100 | – | > 100 | – | > 100 | – | > 100 | – | > 100 |
| CN1CCN(Cc2ccc(NC(=O)c3ccc(C(C)(C)C)c(C#Cc4cnc5cccnn45)c3)cc2C(F)(F)F)CC1 | 2.58 | 5.61 | 15 | 28.9 | 1.89 | 3.39 | 9.62 | 26.4 | 4.63 | 20.1 | 1.76 | 3.35 | 2.03 | 4.14 | 2.16 | 4.86 | 1.82 | 3.46 | 1.68 | 3.4 |
| CNC(=O)c1cn(C[C@H](F)CCc2ccc(NC(=O)Cc3cc(OC4CC(F)(F)C4)cc(C)n3)nn2)nn1 | > 100 | > 100 | > 100 | > 100 | > 100 | > 100 | – | > 100 | – | > 100 | > 100 | > 100 | > 100 | > 100 | > 100 | > 100 | > 100 | > 100 | > 100 | > 100 |
| Cc1sc(C)c(-c2ccc(CO)o2)c1-c1ccc(CO)o1 | 75.4 | > 100 | > 71.7 | > 100 | > 100 | > 100 | 96.6 | > 100 | 0.124 | 0.388 | 0.372 | > 100 | > 100 | > 100 | > 61.5 | > 100 | 0.0787 | > 100 | 0.498 | > 100 |
| Cc1c(-c2nc(N)nc(C3CC3)c2C)nc(N)nc1C1CC1 | – | > 100 | – | > 100 | – | > 100 | – | > 100 | – | > 100 | – | > 100 | – | > 100 | – | > 100 | – | > 100 | – | > 100 |
| CNc1nc(NC2CCCC2)nc(Sc2ccc(OC)cc2)n1 | > 10 | > 10 | > 10 | > 10 | > 10 | > 10 | > 10 | > 10 | > 10 | > 10 | > 10 | > 10 | > 10 | > 10 | > 10 | > 10 | > 10 | > 10 | > 10 | > 10 |
| Clc1ccc(OCc2nnc3n2N=C(c2ccc(Cl)cc2Cl)CS3)c(Cl)c1 | 27.7 | 66.2 | 22.4 | 59.4 | 33.6 | > 100 | 14.2 | 32.3 | 17.6 | 43.2 | 27.8 | 78.6 | 18.7 | 38.7 | 15.5 | 33 | 22.5 | 92.8 | 24.4 | 83.3 |
| CN(C)CCNC(=O)Nc1c(C#N)[n+]([O-])c2cc(Cl)c(Cl)cc2[n+]1[O-] | 21.4 | > 100 | 10.7 | 39.8 | 25.4 | > 100 | 17.2 | > 100 | 22.3 | > 100 | 34.2 | > 100 | 18.9 | 47.3 | 14.3 | 38.1 | 18.5 | > 100 | 27.3 | > 100 |
| COc1ccccc1C(=O)c1ccc2ccccc2c1 | – | 75.9 | – | 52.7 | – | > 100 | – | > 100 | – | > 100 | – | > 100 | – | 25.8 | – | 19.8 | – | > 100 | – | 85.7 |
